The record followed here is PMC6274087, “New Phragmalin-Type Limonoids from Chukrasia tabularis and Their α-Glucosidase Inhibitory Activity” (Molecules, 2016).

One data set deals with α-glucosidase. Nature of the data set: in vitro α-glucosidase inhibitory assay (4-nitrophenyl-α-D-glucopyranoside substrate, OD at 405 nm). As to conditions: for α-glucosidase inhibitory activity (result in words): bioactivity screening; for IC50: read-out: IC50 Value, α-glucosidase inhibitory activity, mean ± SD of triplicate experiments, acarbose as positive control.

Description for α-glucosidase: The optimized procedure was as follows: 20 μL of 0.2 U/mL α-glucosidase has been added into 0.1mM potassium phosphate buffer (pH 6.8, 112 μL), then mixed with the testing sample (8 μL). After being preincubated at 37 °C for 15 min, 20 μL of 2.5 mmol/L 4-nitrophenyl-α-D-glucopyranoside was added and then mixed. The reaction was carried out at 37 °C for 15 min and stopped by adding 0.2 M solution of Na2CO3 (80 μL). The optical density values of the reaction mixture were the mean values of three measurements, which were performed at 405 nm wavelength.

For the compound `COC(=O)C(OC(C)=O)C1C2(C)CC3(O)C(OC(=O)C(C)C)(C2OC(C)=O)C2OC4(C)OC5(C(OC(C)=O)C(OC(C)=O)C67CC6(C(OC(C)=O)C(=O)OC7c6ccoc6)C25O4)C13C` (stereo not drawn) [Compound 5, Chukbularisin E], the melting point lay within 208 to 209 °C. Further, in the data set on α-glucosidase, the “α-glucosidase inhibitory activity (result in words)” value (“α-glucosidase inhibitory activity” for short) is given as “showed inhibitory activities” and the IC50 amounted to 1090 ± 40 µM.

Compound `CC(=O)OC1C2(C)CC34OC5(C)OC6(C7CC(=O)OC(c8ccoc8)C7(C)CCC6(O5)C35OC(=O)CC25)C(OC(=O)C(C)C)C14O` (stereo not drawn) [Compound 2, Chukbularisin B] gave a melting point of 185 to 186 °C. Besides, in the data set on α-glucosidase, the “α-glucosidase inhibitory activity” value is recorded as “showed inhibitory activities” and the 50% inhibitory concentration (IC50) was 60 ± 8 µM.

With `CC(=O)OC(C1=CC(O)OC1=O)C1(C)C(OC(C)=O)C(OC(C)=O)C2(O)C34OC(C)(CC13)OC4C1(OC(C)=O)C(OC(C)=O)C3(C)CC1(O)C21COC(=O)CC31` (stereo not drawn) [Compound 1, Chukbularisin A], the melting point was in the range of 201 to 203 °C.

For the compound `COC(=O)CC1C2(C)CC3(O)C(O)(C2OC(C)=O)C(OC(=O)C(C)C)C24OC5(C)OC(C(OC(C)=O)C67CC62C(OC(=O)C(C)C)C(=O)OC7c2ccoc2)C4(O5)C13C` (stereo not drawn) [Compound 3, Chukbularisin C], the melting point fell in the range of 198 to 199 °C. In addition, in the data set with α-glucosidase, the “α-glucosidase inhibitory activity” value is “showed inhibitory activities” and the IC50 came out at 40 ± 2 µM.

`COC(=O)C(OC(C)=O)C1C2(C)CC3(O)C(O)(C2OC(C)=O)C2OC4(C(C)C)OC5(C(OC(C)=O)C(OC(C)=O)C67CC6(C(OC(C)=O)C(=O)OC7c6ccoc6)C25O4)C13C` (stereo not drawn) [Compound 4, Chukbularisin D] came in with a melting point of 190 to 191 °C. For the same compound, in the data set with α-glucosidase, the “α-glucosidase inhibitory activity” value was “showed inhibitory activities” and the 50% inhibitory concentration (IC50) worked out at 520 ± 39 µM.

In the case of `COC(=O)C(OC(C)=O)C1C2(C)CC34OC5(C)OC6(C(O)C(OC(C)=O)C78CC7(C(OC(C)=O)C(=O)OC8c7ccoc7)C6(O5)C(OC(=O)C(C)C)C3(O)C2OC(C)=O)C14C` (stereo not drawn) [Compound 8, chubularisin K], in the data set with α-glucosidase, the “α-glucosidase inhibitory activity” value is reported as “showed inhibitory activities” and the IC50 was determined as 200 ± 57 µM.
